Test results taken from US20130310256A1, “HERBICIDAL COMPOSITIONS COMPRISING 4-AMINO-3-CHLORO-5-FLUORO-6-(4-CHLORO-2-FLUORO-3-METHOXYPHENYL) PYRIDINE-2-CARBOXYLIC ACID OR A DERIVATIVE THEREOF AND VLCFA AND LIPID SYNTHESIS INHIBITING HERBICIDES” (DOW AGROSCIENCES LLC, priority 2008, published 2013).

Assays:
POLHP = assay: Example V: field trial, in-water application to transplanted rice, Niigata, Japan; format: in vivo, Polygonum hydropiperoides; settings: 31 DAA, submerged weeds
Protocol: Post and pre-emergence field trials were conducted in Niigata, Japan. Trial sites were located in commercially grown fields of transplanted rice (Oryza sativa, variety: Koshihikari) using standard herbicide small plot research methodology. The trial plot size was 2 meters (m)×2 m with 3 replications. The nursery plants were grown in the greenhouse using practical methods and transplanted into the field at the 2.5-leaf stage on May 7, 2012. The row and in-row spaces were 30 cm and 17 cm, respectively. The crop was grown using normal cultural practices for fertilization, water management and maintenance to ensure good growth of the crop and the weeds.
Treatments consisted of the benzyl ester of 4-amino-3-chloro-5-fluoro-6-(4-chloro-2-fluoro-3-methoxyphenyl)pyridine-2-carboxylic acid (Compound A) formulated as an SC (suspension concentrate) and various herbicidal components alone and in combination. Compound A benzyl ester was applied on an active ingredient basis. […]
Compound A benzyl ester SC was once diluted in 100 mL water in the 200 mL bottle/plot to achieve the desired rates and applied by water injection. […] Visual weed control was scored on a scale of 0 to 100 percent where 0 corresponds to no injury and 100 corresponds to complete kill. […]

SCPJU = assay: Example II: in-water applied weed control, transplanted paddy rice, greenhouse; format: in vivo, Schoenoplectus juncoides (Roxb.) Palla (Japanese bulrush)
Protocol: Weed seeds or nutlets of the desired test plant species were planted in puddled soil (mud) prepared by mixing a shredded, non-sterilized mineral soil (50.5 percent silt, 25.5 percent clay, and 24 percent sand, with a pH of about 7.6 and an organic matter content of about 2.9 percent) and water at a 1:1 volumetric ratio. The prepared mud was dispensed in 365 mL aliquots into 16-ounce (oz.) non-perforated plastic pots with a surface area of 86.59 square centimeters (cm^2) leaving a headspace of 3 centimeters (cm) in each pot. Mud was allowed to dry overnight prior to planting or transplanting. Rice seeds were planted in Sun Gro MetroMix® 306 planting mixture, which typically has a pH of 6.0 to 6.8 and an organic matter content of about 30 percent, in plastic plug trays. Seedlings at the second or third leaf stage of growth were transplanted into 840 mL of mud contained in 32-oz. non-perforated plastic pots with a surface area of 86.59 cm^2 4 days prior to herbicide application. The paddy was created by filling the headspace of the pots with 2.5 to 3 cm of water. When required to ensure good germination and healthy plants, a fungicide treatment and/or other chemical or physical treatment was applied. The plants were grown for 4-22 days in a greenhouse with an approximate 14 hr photoperiod which was maintained at about 29′C during the day and 26° C. during the night. Nutrients were added as Osmocote® (19:6:12, N:P:K+ minor nutrients) at 2 g per 16-oz. pot and 4 g per 32-oz. pot. […]
Treatment requirements for each compound or herbicidal component were calculated based upon the rates being tested, the concentration of active ingredient or acid equivalent in the formulation, an application volume of 2 mL per component per pot, and an application area of 86.59 cm^2 per pot.
For formulated compounds, a measured amount was placed in an individual 100 or 200 mL glass vial and was dissolved in a volume of 1.25% (v/v) Agri-Dex® crop oil concentrate to obtain application solutions. […]

For CCS(=O)(=O)Oc1ccc2c(c1)C(C)(C)CO2 [Benfuresate, 2,3-dihydro-3,3-dimethyl-5-benzofuranyl ethanesulfonate], the “Visual Weed Control POLHP Obs” value (POLHP; 600 gai/ha) was 94.3%.
In the case of COc1c(Cl)ccc(-c2nc(C(=O)O)c(Cl)c(N)c2F)c1F [Compound A Acid, 4-amino-3-chloro-6-(4-chloro-2-fluoro-3-methoxyphenyl)-5-fluoropyridine-2-carboxylic acid], the “Visual Weed Control (%) - 20 DAA SCPJU Obs” value (shortened to “Visual Weed Control (%)”) (SCPJU; 8.75 gae/ha) is reported as 40%.
With COc1c(Cl)ccc(-c2nc(C(=O)OCc3ccccc3)c(Cl)c(N)c2F)c1F [Compound A Benzyl Ester, benzyl ester of 4-amino-3-chloro-5-fluoro-6-(4-chloro-2-fluoro-3-methoxy-phenyl)pyridine-2-carboxylic acid] the “Visual Weed Control POLHP Obs” value (POLHP; 100 gai/ha) was 68.3%.
In the case of CCCOCCN(C(=O)CCl)c1c(CC)cccc1CC [Pretilachlor, 2-chloro-N-(2,6-diethylphenyl)-N-(2-propoxyethyl)acetamide], the “Visual Weed Control (%)” value (SCPJU; 75 gai/ha) is reported as 50% and the “Visual Weed Control (%)” value (SCPJU; 150 gai/ha) is reported as 20%.
